Measured values from patent publication EP4610267A1, “CYCLIC DINUCLEOTIDES AND CONJUGATES THEREOF WITH ANTIBODIES” (priority 2024, dated 2025).

Experiments:
[1] = system: STING-dependent cytokine IP10 (CXCL10) in HCC1954 cells; assay: IP10 (CXCL10) induction in HCC1954 cells; type: cell-based, human; settings: free Warhead CDN, no antibody
Description: (§1) HCC1954 and 293T reporter cells were cultured as previously described. HCC1954 cells, which naturally express both Her2 and TROP2, were seeded into collagen-coated 96-well plates at a density of 0.5×10^6 cells/ml (100 µl/well) in RPMI medium supplemented with 10% FBS and Penicillin/Streptomycin. The following day, the medium was completely removed, and serial dilutions of mAb2-CDN and mAb5-CDN conjugates in medium were added to the wells. Levels of the STING-dependent cytokine IP10 (CXCL10) induction were determined in the medium using ProcartaPlex Immunoassays after 24 hours of incubation following the manufacturer's protocol and measured on a MagPix instrument. […] Nonlinear regression curve fitting was applied for EC50 value calculations. The EC50 value represents the concentration of the payload CDN 2.2 conjugated to anti-Her2 mAb2 or anti-TROP2 mAb5 that results in half-maximal levels of IP-10. Twenty million 293T WT STING reporter cells were seeded into two T150 flasks, each containing 30 mL of DMEM with high glucose supplemented with 10% heat-inactivated FBS. One flask was designated for transfected cells, and the other served as a non-transfected control. After 24 hours, the cell culture medium was replaced with 27 mL of fresh media. […] A 50 µL mixture was transferred to white 96-well plates, and luminescence was measured using a TECAN reader.

[2] = Pharmacokinetics of Compound 2.2 applied i.v.; type: in vivo; settings: mice (Balb/c), 5mg/kg i.v.
Description: Pharmacokinetics of Compound 2.2 applied I.V. at dose 5mg/kg was determined in Balb/c mice. Plasma samples were precipitated with methanol (final concetration 70%) spiked with internal standard, the precipited proteins were removed by centrigugation and supernatant was evaporated. The analytes were dissolved in 100 µL of 10 mM CH3COONH4 by vortexing for 5 min. Compound 22 along with the corresponding internal standard were separated and detected using a liquid chromatograph Exion LC AD with tandem mass spectrometer QTrap 6500+ (both Sciex) equipped with a separation column Acquity BEH C18 1.7 µm, 50 × 2.1 mm, as well as a guard column 1.7 µm C18, 5 × 2.1 mm (both Waters). The mobile phase (A) used for separation consisted of 10 mM CH3COONH4 in deionized water, while mobile phase (B) was composed of 10 mM CH3COONH4 in methanol. […] Analytes were monitored through their specific multiple reaction monitoring (MRM) transitions by utilizing electrospray ionization (ESI) in a positive mode with the following parameters: 50 msec dwell time, entrance potential 10 V, ion source temperature 350°C, ion spray voltage 5.5 kV, curtain gas (40 psi), GS1 gas (50 psi), and GS2 gas (50 psi). Quantification of Compound 2.2 was conducted using a weighted calibration curve (1/x^2) with a structurally similar internal standard.

STING HAQ = target: T1, STING HAQ (Homo sapiens, UniProt Q86WV6, G230A/H232R/R293Q/R71H); assay: 293T STING digitonin reporter assay (HAQ haplotype); type: cell-based; settings: digitonin permeabilised 293T reporter cells
T1 construct: expressed in transfected cells
T1 sequence (Q86WV6 whole entry R71H/G230A/H232R/R293Q): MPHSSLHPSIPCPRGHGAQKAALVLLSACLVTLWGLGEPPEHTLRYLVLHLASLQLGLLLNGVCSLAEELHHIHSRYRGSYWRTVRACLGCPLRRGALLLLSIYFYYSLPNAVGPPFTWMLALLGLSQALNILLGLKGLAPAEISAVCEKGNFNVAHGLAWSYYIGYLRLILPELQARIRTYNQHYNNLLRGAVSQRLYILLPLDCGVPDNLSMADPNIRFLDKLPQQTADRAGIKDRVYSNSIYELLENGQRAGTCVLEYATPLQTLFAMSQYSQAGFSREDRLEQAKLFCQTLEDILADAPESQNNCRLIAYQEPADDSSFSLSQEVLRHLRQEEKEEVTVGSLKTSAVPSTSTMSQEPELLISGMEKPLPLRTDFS
Description: Digitonin Assay with 293T Reporter Cells. The generation of 293T reporter cells stably expressing different STING protein haplotypes (WT, HAQ, REF, AQ, or Q) was described previously (Novotna et al, J. Med. Chem. 2019,62, 10676). The cells were seeded at a density of 250 000 cells per cm^2 into 96 well white poly(D-lysine) coated plates in 100 µL of DMEM with high glucose supplemented with 10% heat inactivated FBS. Next day, the medium was removed, and compounds were added in 3-fold serial dilutions in a digitonin buffer containing 50 mM HEPES (pH 7.0), 100 mM KCl, 3 mM MgClz, 0.1 mM DTT, 85 mM sucrose, 0.2% (w/w) BSA, 1 mM ATP, 0.1 mM GTP, and 10 µg/mL digitonin A. After 30 min incubation at 37 °C with 5% CO2, the digitonin buffer was removed, cells were washed once with 100 µL of the cultivation medium, and 100 µL of fresh medium was added to each well. The plates with cells were further incubated for 5 h at 37 °C with 5% CO2. Thereafter, 50 µL of the medium was removed, and 30 µL of Bright-Glo Luciferase Assay System reagent was added to each well. […] Nonlinear regression curve fit with standard slope was used for EC50 value calculations. The EC50 value represents CDN concentration that gives half-maximal response of firefly luciferase in the 293T reporter assay.

[3] = system: 293T WT STING reporter cells expressing TROP2; assay: 293T WT STING reporter cells transiently expressing TROP2, luciferase; type: cell-based; settings: free Warhead CDN, no antibody; TROP2+ 293T reporter cells
Description: as §1, with “IP-10.” for “IP-10. Twenty million 293T WT STING reporter cells were seeded into two T150 flasks, each containing 30 mL of DMEM with high glucose supplemented with 10% heat-inactivated FBS. One flask was designated for transfected cells, and the other served as a non-transfected control. After 24 hours, the cell culture medium was replaced with 27 mL of fresh media.”
EC50 values were calculated from an 8-point dose-response curve using GraphPad Prism (La Jolla, USA) with nonlinear regression curve fitting. The EC50 represents the concentration of the payload CDN 2.2 conjugated to anti-Her2 mAb2 or anti-TROP2 mAb5 that results in half-maximal levels of luminescence.

Compound: Nc1ncnc2c1ncn2[C@@H]1O[C@@H]2OCP(=O)(S)O[C@@H]3[C@H](F)[C@@H](COP(=O)(S)OC[C@H]2[C@H]1F)O[C@H]3n1cnc2c(=O)[nH]cnc21 (single isomer, unassigned) [Compound 2.2]
- EC50 [1]: 1700 nM
- half-life [2]: less than 10 minutes
- EC50 (STING HAQ): 20 nM
- EC50 [3]: 700 nM
